Data reported in the NIST ThermoML archive (doi:10.1021/je2013704).

Test: mn = molality of the nth substance listed, in mol/kg
Details: Liquid, Vibrating tube method

[Cl][Al]([Cl])[Cl] [aluminum chloride] + O
mass density [kg/m3]
Details	900 kPa	9900 kPa	19900 kPa	29900 kPa	39900 kPa	49900 kPa	59900 kPa	68400 kPa
298.12 K, m1 = 1	1105.53	1108.79	1112.3	1115.82	1119.28	1122.69	1125.95	1128.83
298.12 K, m1 = 2	1212.19	1214.96	1217.92	1220.94	1223.85	1226.72	1229.57	1232.02
323.07 K, m1 = 1	1096.76	1099.96	1103.44	1106.84	1110.31	1113.67	1116.93	1119.6
323.07 K, m1 = 2	1203.26	1206.02	1209.01	1211.9	1214.88	1217.8	1220.6	1222.88
348.04 K, m1 = 1	1085.66	1088.98	1092.48	1096.02	1099.44	1102.74	1106.07	1108.86
348.04 K, m1 = 2	1192.82	1196	1199.11	1202.1	1205.07	1207.92	1210.85	1213.26
372.99 K, m1 = 1	1072.64	1075.97	1079.63	1083.19	1086.72	1090.2	1093.58	1096.34
372.99 K, m1 = 2	1181.64	1184.73	1187.9	1191.11	1194.19	1197.22	1200.14	1202.66
